Target: T1, carbamoylytic enzyme (Enzyme II, carbamoylase) (Agrobacterium radiobacter, UniProt Q44185)
T1 construct: endogenous in cells; host or cells: Agrobacterium sp. cells, acetone-dried powder (crude, enzyme not purified)
Experiment: enzymic activity test of acetonic powder of Agrobacterium sp. cells on N-carbamoyl aminoacid substrates (NH4+ by phenol-hypochlorite method)
Assay type: biochemical
Settings: 1-hour incubation; for % ACTIVITY (hydrolytic activity, assuming as 100 the activity against N-carbamoyl-D(-)-parahydroxyphenylglycine): 20 mM substrate in pyrophosphate buffer 0.1 M pH 7.7, acetonic powder, 40° C., under nitrogen
Experimental: Cells of Agrobacterium sp. strain were prepared as described in Example 1. A few grams of moist cellule slurry was slurried in pyrophosphate buffer (0.1 M pH 7.7) and subjected to acetonic treatment in the cold.
After removing acetone by filtration, the acetonic preparation thus obtained was dried to constant weight in vacuum at 35° C. The dried material was homogenized in a mortar and powder thus obtained was used for the enzymic activity tests.
The caetonic powder was assayed on the following substrates: N-carbamoyl-D-(-)-alanine, N-carbamoyl-D(-) valine, N-carbamoyl-D-(-)glutamic acid, N-carbamoyl-D(-)-parahydroxyphenylglycine,N-carbamoyl-D(-)-paramethoxyphenylglycine, N-carbamoyl-D-(-)-phenylglycine, N-carbamoyl-L(+)-phenylglycine, N-carbamoyl-D(-)-phenylalanine, N-carbamoyl-L(+)-glutamic acid and N-carbamoyl-D(-) (2-thienyl)-glycine.
Thus, 20 mM solution were prepared of each carbamoyl derivative in pyrophosphate buffer 0.1 M pH 7.7, and, to 10 mls of each solution there was added an adequate quantity of acetonic powder, equal for each substrate.
The incubation was carried out under a UPP nitrogen blanket with stirring at a temperature of 40° C. After 1-hour incubation, the quantity of the produced aminoacid was measured by determining in the reaction mixtures the concentration of the NH4^+ ion which has been reached, with the phenol-hypochlorite method indicated in Example 2.

T1 sequence (Q44185 whole entry): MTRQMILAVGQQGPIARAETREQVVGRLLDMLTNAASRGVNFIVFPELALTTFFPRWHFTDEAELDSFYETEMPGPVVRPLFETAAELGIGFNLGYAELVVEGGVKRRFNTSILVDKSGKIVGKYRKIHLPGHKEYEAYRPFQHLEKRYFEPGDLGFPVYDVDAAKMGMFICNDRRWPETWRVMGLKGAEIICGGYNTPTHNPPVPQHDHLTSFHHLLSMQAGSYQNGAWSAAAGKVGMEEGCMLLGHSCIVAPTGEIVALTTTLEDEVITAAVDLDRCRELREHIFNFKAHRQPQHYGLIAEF

| Structure (SMILES) | % ACTIVITY (hydrolytic activity, assuming as 100 the activity against N-carbamoyl-D(-)-parahydroxyphenylglycine) [%] | activity of the carbamoylytic enzyme, ranking among substrates (20 mM substrate, pyrophosphate buffer 0.1 M pH 7.7, 40° C.) |
| --- | --- | --- |
| NC(=O)N[C@@H](C(=O)O)c1cccs1 [N-carbamoyl-D(-)-(2-thienyl)glycine] | 40.7 |  |
| NC(=O)N[C@@H](C(=O)O)c1ccc(O)cc1 [N-carbamoyl-D(-)-parahydroxyphenylglycine] | 100.0 | highest activity |
| COc1ccc([C@@H](NC(N)=O)C(=O)O)cc1 [N-carbamoyl-D(-)-paramethoxyphenylglycine] | 40.0 |  |
| NC(=O)N[C@H](Cc1ccccc1)C(=O)O [N-carbamoyl-D(-)-phenylalanine] | 50.0 |  |
| NC(=O)N[C@@H](C(=O)O)c1ccccc1 [N-carbamoyl-D(-)-phenylglycine] | 81.25 |  |
| CC(C)[C@@H](NC(N)=O)C(=O)O [N-carbamoyl-D(-)-valine] | 34.25 |  |
| NC(=O)N[C@H](CCC(=O)O)C(=O)O [N-carbamoyl-D(-)glutamic acid] | 21.7 |  |
| C[C@@H](NC(N)=O)C(=O)O [N-carbamoyl-D-(-)-alanine] | 57.5 |  |
| NC(=O)N[C@H](C(=O)O)c1ccccc1 [N-carbamoyl-L(+)-phenylglycine] | 0 |  |
| NC(=O)N[C@@H](CCC(=O)O)C(=O)O [N-carbamoyl-L(+)glutamic acid] | 0 |  |
